{"source": "patent EP4796536A1", "about": "“CRYSTAL FORMS OF COMPOUND HAVING FUSED FIVE- AND SIX-MEMBERED RINGS, PREPARATION METHOD THEREFOR, AND USE THEREOF” (Hangzhou Polymed Biopharmaceuticals, Inc., priority 2023, dated 2025)", "key": {"[1]": {"test": "Mechanical stability: dry grinding, wet grinding, tableting (XRPD)", "assay_type": "physicochemical", "description": "Dry grinding: approximately 10 mg of the starting sample was ground for 3 minutes in a mortar, and then subjected to XRPD testing.\nWet grinding: approximately 10 mg of the starting sample was ground with 1 to 2 drops of solvent for 3 minutes in a mortar, and then subjected to XRPD testing.\nTableting experiment: approximately 10 mg of the starting sample was compressed at 20 MPa for 3 minutes, and then subjected to XRPD testing."}, "[2]": {"test": "Solubility of crystal forms in buffers, biorelevant media and water (HPLC, XRPD of residual solid)", "assay_type": "physicochemical", "settings": "for pH (24 h): 5 mg/mL suspension stirred at 37°C, pH of the solution at 24 h; for Solubility at 37°C (mg/mL) 2 h: 120 min; for Solubility at 37°C (mg/mL) 2 h / Solubility at 37°C (mg/mL) 24 h / solubility at 2 h / solubility at 24 h: 37°C; for solubility at 2 h: read-out: Solubility at 37°C (mg/mL) 2 h; for solubility at 24 h: read-out: Solubility at 37°C (mg/mL) 24 h", "description": "The solubility of the two crystal forms at 2 hours and 24 hours and the pH of the solution at 24 hours were tested. The solid was filtered, and the resulting solid was tested for XRPD."}, "[3]": {"test": "Physicochemical stability of crystal forms (HPLC purity, XRPD)"}, "[4]": {"test": "Hygroscopicity by dynamic vapor sorption (DVS)", "assay_type": "physicochemical", "description": "Samples are analyzed for hygroscopicity using Intrinsic DVS ([…], UK). Approximately 10 to 30 mg of sample is used for testing. The testing chamber is controlled at a temperature of 25 ± 1°C with the specific testing parameters shown below: […]"}, "[5]": {"settings": "Dry grinding, 3 minutes in a mortar, no solvent"}, "[6]": {"settings": "Tableting, 20 MPa for 3 minutes, solvent EA"}, "[7]": {"settings": "Wet grinding, solvent EtOH, 3 minutes in a mortar"}, "[8]": {"settings": "Wet grinding, solvent Water, 3 minutes in a mortar"}}, "note": "Like-named read-outs stand apart in the source and are kept apart here."}
{"smiles": "COc1cc2nn(C3CC4(CCN(C(=O)C5CCN(c6ccc7c(c6)C(=O)N(C6CCC(=O)NC6=O)C7=O)CC5)CC4)C3)cc2cc1NC(=O)c1cccc(C(F)(F)F)n1", "note": "(single isomer, unassigned) [crystal form I]", "values": [{"measurement": "Solid color", "setting": "[1]; [5]", "value": "Yellow, essentially no change"}, {"measurement": "XRPD results", "setting": "[1]; [5]", "value": "Crystal form I (low degree of crystallinity)"}, {"measurement": "Solid color", "setting": "[1]; [6]", "value": "Yellow, essentially no change"}, {"measurement": "XRPD results", "setting": "[1]; [6]", "value": "Crystal form I"}, {"measurement": "Solid color", "setting": "[1]; [7]", "value": "Yellow, essentially no change"}, {"measurement": "XRPD results", "setting": "[1]; [7]", "value": "Crystal form I"}, {"measurement": "Solid color", "setting": "[1]; [8]", "value": "Yellow, essentially no change"}, {"measurement": "XRPD results", "setting": "[1]; [8]", "value": "Crystal form I"}, {"measurement": "degree of crystallinity of the solid", "setting": "[1]; after dry grinding", "value": "reduction in the degree of crystallinity"}, {"measurement": "crystal form of the solid (XRPD)", "setting": "[1]; after dry grinding, wet grinding, and tableting", "value": "no change in the crystal form"}, {"measurement": "Solid color", "setting": "[1]; after grinding and tableting experiments, versus starting sample", "value": "essentially no change in the solid color"}, {"measurement": "degree of crystallinity of the solid", "setting": "[1]; after wet grinding and tableting", "value": "almost no change in the degree of crystallinity"}, {"measurement": "pH (24 h)", "setting": "[2]; FaSSIF", "value": 6.501}, {"measurement": "Solubility at 37°C (mg/mL) 2 h", "setting": "[2]; FaSSIF", "value": 0.00141, "unit": "mg/mL"}, {"measurement": "solubility", "setting": "[2]; FeSSIF, stirring at 37°C for 24 hours, 1440 min", "value": "approximately 0.01 mg/mL"}, {"measurement": "pH (24 h)", "setting": "[2]; FeSSIF", "value": 5.085}, {"measurement": "Solubility at 37°C (mg/mL) 24 h", "setting": "[2]; FeSSIF, 1440 min", "value": 0.01099, "unit": "mg/mL"}, {"measurement": "pH (24 h)", "setting": "[2]; SGF", "value": 1.266}, {"measurement": "pH (24 h)", "setting": "[2]; Water", "value": 6.749}, {"measurement": "Solubility at 37°C (mg/mL) 2 h", "setting": "[2]; Water", "value": 0.00089, "unit": "mg/mL"}, {"measurement": "Solubility at 37°C (mg/mL) 24 h", "setting": "[2]; Water, 1440 min", "value": 0.00025, "unit": "mg/mL"}, {"measurement": "Crystal form", "setting": "[2]; XRPD of residual solid after stirring in FaSSIF at 37°C for 24 hours", "value": "Crystal form I"}, {"measurement": "Crystal form", "setting": "[2]; XRPD of residual solid after stirring in FeSSIF at 37°C for 24 hours", "value": "Crystal form I"}, {"measurement": "Crystal form", "setting": "[2]; XRPD of residual solid after stirring in SGF at 37°C for 24 hours", "value": "Crystal form I"}, {"measurement": "Crystal form", "setting": "[2]; XRPD of residual solid after stirring in Water at 37°C for 24 hours", "value": "Crystal form I"}, {"measurement": "Crystal form", "setting": "[2]; XRPD of residual solid after stirring in pH 1.2 buffer at 37°C for 24 hours", "value": "Crystal form I"}, {"measurement": "Crystal form", "setting": "[2]; XRPD of residual solid after stirring in pH 3.0 buffer at 37°C for 24 hours", "value": "Crystal form I"}, {"measurement": "Crystal form", "setting": "[2]; XRPD of residual solid after stirring in pH 4.5 buffer at 37°C for 24 hours", "value": "Crystal form I"}, {"measurement": "Crystal form", "setting": "[2]; XRPD of residual solid after stirring in pH 6.8 buffer at 37°C for 24 hours", "value": "Crystal form I"}, {"measurement": "Crystal form", "setting": "[2]; XRPD of residual solid after stirring in pH 7.4 buffer at 37°C for 24 hours", "value": "Crystal form I"}, {"measurement": "solubility at 2 h", "setting": "[2]; buffer, pH 1.2, pH 1.2 buffer", "value": 0.00084, "unit": "mg/mL"}, {"measurement": "solubility at 24 h", "setting": "[2]; buffer, pH 1.2, pH 1.2 buffer", "value": 0.00081, "unit": "mg/mL"}, {"measurement": "solubility at 2 h", "setting": "[2]; buffer, pH 3, pH 3.0 buffer", "value": 0.00048, "unit": "mg/mL"}, {"measurement": "solubility at 24 h", "setting": "[2]; buffer, pH 3, pH 3.0 buffer", "value": 0.00077, "unit": "mg/mL"}, {"measurement": "solubility at 2 h", "setting": "[2]; buffer, pH 4.5, pH 4.5 buffer", "value": 0.00019, "unit": "mg/mL"}, {"measurement": "solubility at 24 h", "setting": "[2]; buffer, pH 4.5, pH 4.5 buffer", "value": 0.00087, "unit": "mg/mL"}, {"measurement": "solubility at 2 h", "setting": "[2]; buffer, pH 6.8, pH 6.8 buffer", "value": 0.00046, "unit": "mg/mL"}, {"measurement": "solubility at 24 h", "setting": "[2]; buffer, pH 6.8, pH 6.8 buffer", "value": 0.00084, "unit": "mg/mL"}, {"measurement": "solubility at 2 h", "setting": "[2]; buffer, pH 7.4, pH 7.4 buffer", "value": 0.00101, "unit": "mg/mL"}, {"measurement": "solubility at 24 h", "setting": "[2]; buffer, pH 7.4, pH 7.4 buffer", "value": 0.00079, "unit": "mg/mL"}, {"measurement": "solubility at 24 h", "setting": "[2]; fassif", "value": 0.00148, "unit": "mg/mL"}, {"measurement": "solubility at 2 h", "setting": "[2]; fessif", "value": 0.004, "unit": "mg/mL"}, {"measurement": "pH (24 h)", "setting": "[2]; pH 1.2 buffer", "value": 1.234}, {"measurement": "pH (24 h)", "setting": "[2]; pH 3.0 buffer", "value": 3.145}, {"measurement": "pH (24 h)", "setting": "[2]; pH 4.5 buffer", "value": 4.583}, {"measurement": "pH (24 h)", "setting": "[2]; pH 6.8 buffer", "value": 6.805}, {"measurement": "pH (24 h)", "setting": "[2]; pH 7.4 buffer", "value": 7.439}, {"measurement": "solubility at 2 h", "setting": "[2]; sgf", "value": 0.00158, "unit": "mg/mL"}, {"measurement": "solubility at 24 h", "setting": "[2]; sgf", "value": 0.00376, "unit": "mg/mL"}, {"measurement": "Purity (%)", "setting": "[3]; 25°C/60% RH, open, 1 week", "value": 98.96, "unit": "%"}, {"measurement": "XRPD", "setting": "[3]; 25°C/60% RH, open, 1 week", "value": "Unchanged"}, {"measurement": "Purity (%)", "setting": "[3]; 40°C/75% RH, open, 1 week", "value": 98.96, "unit": "%"}, {"measurement": "XRPD", "setting": "[3]; 40°C/75% RH, open, 1 week", "value": "Unchanged"}, {"measurement": "Purity (%)", "setting": "[3]; 60°C, closed, 1 week", "value": 98.80, "unit": "%"}, {"measurement": "XRPD", "setting": "[3]; 60°C, closed, 1 week", "value": "Unchanged"}, {"measurement": "Purity (%)", "setting": "[3]; Initial", "value": 98.97, "unit": "%"}, {"measurement": "Purity (%)", "setting": "[3]; Light, closed, 10 days", "value": 98.96, "unit": "%"}, {"measurement": "XRPD", "setting": "[3]; Light, closed, 10 days", "value": "Unchanged"}, {"measurement": "Purity (%)", "setting": "[3]; Light, control, 10 days", "value": 98.97, "unit": "%"}, {"measurement": "XRPD", "setting": "[3]; Light, control, 10 days", "value": "Unchanged"}, {"measurement": "change in the crystal form after stability testing", "setting": "[3]; all stability conditions", "value": "no change in the crystal form"}, {"measurement": "degradation", "setting": "[3]; closed stability chamber at 60°C for 1 week", "value": 0.17, "unit": "%"}, {"measurement": "degradation", "setting": "[3]; other stability conditions (25°C/60% RH, 40°C/75% RH 1 week; light 10 days)", "value": "no significant degradation"}, {"measurement": "hygroscopic weight gain", "setting": "[4]; 80% RH, 25°C", "value": 0.3629, "unit": "%"}, {"measurement": "hygroscopicity evaluation", "setting": "[4]; DVS, based on weight gain at 80% RH", "value": "slightly hygroscopic"}, {"measurement": "crystal form after DVS testing", "setting": "[4]; after DVS testing", "value": "no change in the crystal form"}]}
